# System: NCI-H1341 complex spheroids, percent test/control
# Test: Anticancer human tumor NCI-H1341 cell line growth inhibition [AhR];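 also: spheroids exposed to agents for seven days before readout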
# Conditions: for IC50: curve of first compound; for viability, T/C: stronger effect = lower value
# Procedure, shortened: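 Agents were dosed in half-log steps down from roughly clinical Cmax, or from 10 microM where Cmax was unknown, alone and with AhR antagonists. Read-out: percent test/control growth of tumor spheroids containing HUVEC and MSC stromal cells.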
# [1] = second compound 0.1 µM, first compound 0.0316 µM
# [2] = second compound 0.1 µM, first compound 0.1 µM
# [3] = second compound 0.1 µM, first compound 0.316 µM
# [4] = second compound 0.1 µM, first compound 1 µM
# [5] = second compound 0.1 µM, first compound 3.16 µM
# [6] = second compound 0.1 µM, first compound 10 µM
# [7] = second compound 0.316 µM, first compound 0.0316 µM
# [8] = second compound 0.316 µM, first compound 0.1 µM
# [9] = second compound 0.316 µM, first compound 0.316 µM
# [10] = second compound 0.316 µM, first compound 1 µM
# [11] = second compound 0.316 µM, first compound 3.16 µM
# [12] = second compound 0.316 µM, first compound 10 µM
# [13] = second compound 1 µM, first compound 0.0316 µM
# [14] = second compound 1 µM, first compound 0.1 µM
# [15] = second compound 1 µM, first compound 0.316 µM
# [16] = second compound 1 µM, first compound 1 µM
# [17] = second compound 1 µM, first compound 3.16 µM
# [18] = second compound 1 µM, first compound 10 µM
# [19] = second compound 3.16 µM, first compound 0.0316 µM
# [20] = second compound 3.16 µM, first compound 0.1 µM
# [21] = second compound 3.16 µM, first compound 0.316 µM
# [22] = second compound 3.16 µM, first compound 1 µM
# [23] = second compound 3.16 µM, first compound 3.16 µM
# [24] = second compound 3.16 µM, first compound 10 µM
# [25] = second compound 10 µM, first compound 0.0316 µM
# [26] = second compound 10 µM, first compound 0.1 µM
# [27] = second compound 10 µM, first compound 0.316 µM
# [28] = second compound 10 µM, first compound 1 µM
# [29] = second compound 10 µM, first compound 3.16 µM
# [30] = second compound 10 µM, first compound 10 µM
structure (smiles),measurement,setting,value
CC1(C)CCC(CN2CCN(c3ccc(C(=O)NS(=O)(=O)c4ccc(NCC5CCOCC5)c([N+](=O)[O-])c4)c(Oc4cnc5[nH]ccc5c4)c3)CC2)=C(c2ccc(Cl)cc2)C1 + Cc1cncc(-c2nc(NCCc3c[nH]c4ccccc34)c3ncn(C(C)C)c3n2)c1,IC50,second compound 0.1 µM,> 10000 nM
same,IC50,second compound 0.316 µM,> 10000 nM
same,IC50,second compound 1 µM,> 10000 nM
same,IC50,second compound 3.16 µM,> 10000 nM
same,IC50,second compound 10 µM,< 31.6 nM
same,"viability, T/C",[1],94.9%
same,"viability, T/C",[2],77.2%
same,"viability, T/C",[3],81.5%
same,"viability, T/C",[4],77%
same,"viability, T/C",[5],64.9%
same,"viability, T/C",[6],68.3%
same,"viability, T/C",[7],86.6%
same,"viability, T/C",[8],77.9%
same,"viability, T/C",[9],71.3%
same,"viability, T/C",[10],73.3%
same,"viability, T/C",[11],66.1%
same,"viability, T/C",[12],78.1%
same,"viability, T/C",[13],79.4%
same,"viability, T/C",[14],80.9%
same,"viability, T/C",[15],81.6%
same,"viability, T/C",[16],71.8%
same,"viability, T/C",[17],63.9%
same,"viability, T/C",[18],60.3%
same,"viability, T/C",[19],70.6%
same,"viability, T/C",[20],66.7%
same,"viability, T/C",[21],66.1%
same,"viability, T/C",[22],53.9%
same,"viability, T/C",[23],64.1%
same,"viability, T/C",[24],70.5%
same,"viability, T/C",[25],49.9%
same,"viability, T/C",[26],43.3%
same,"viability, T/C",[27],45.2%
same,"viability, T/C",[28],39.8%
same,"viability, T/C",[29],42%
same,"viability, T/C",[30],41.9%
CCN(c1cc(-c2ccc(CN3CCOCC3)cc2)cc(C(=O)NCc2c(C)cc(C)[nH]c2=O)c1C)C1CCOCC1 + Cc1cncc(-c2nc(NCCc3c[nH]c4ccccc34)c3ncn(C(C)C)c3n2)c1,IC50,second compound 0.1 µM,> 3000 nM
same,IC50,second compound 0.316 µM,> 3000 nM
same,IC50,second compound 1 µM,> 3000 nM
same,IC50,second compound 3.16 µM,> 3000 nM
same,IC50,second compound 10 µM,< 9.49 nM
same,"viability, T/C","second compound 0.1 µM, first compound 0.00949 µM",72.4%
same,"viability, T/C","second compound 0.1 µM, first compound 0.03 µM",91.7%
same,"viability, T/C","second compound 0.1 µM, first compound 0.0949 µM",68.9%
same,"viability, T/C","second compound 0.1 µM, first compound 0.3 µM",70.9%
same,"viability, T/C","second compound 0.1 µM, first compound 0.949 µM",74.5%
same,"viability, T/C","second compound 0.1 µM, first compound 3 µM",63.9%
same,"viability, T/C","second compound 0.316 µM, first compound 0.00949 µM",97.3%
same,"viability, T/C","second compound 0.316 µM, first compound 0.03 µM",82.3%
same,"viability, T/C","second compound 0.316 µM, first compound 0.0949 µM",89%
same,"viability, T/C","second compound 0.316 µM, first compound 0.3 µM",76.1%
same,"viability, T/C","second compound 0.316 µM, first compound 0.949 µM",85%
same,"viability, T/C","second compound 0.316 µM, first compound 3 µM",76.8%
same,"viability, T/C","second compound 1 µM, first compound 0.00949 µM",69.5%
same,"viability, T/C","second compound 1 µM, first compound 0.03 µM",86.7%
same,"viability, T/C","second compound 1 µM, first compound 0.0949 µM",69.8%
same,"viability, T/C","second compound 1 µM, first compound 0.3 µM",72%
same,"viability, T/C","second compound 1 µM, first compound 0.949 µM",65%
same,"viability, T/C","second compound 1 µM, first compound 3 µM",57.5%
same,"viability, T/C","second compound 3.16 µM, first compound 0.00949 µM",66.1%
same,"viability, T/C","second compound 3.16 µM, first compound 0.03 µM",77.3%
same,"viability, T/C","second compound 3.16 µM, first compound 0.0949 µM",66.4%
same,"viability, T/C","second compound 3.16 µM, first compound 0.3 µM",67.3%
same,"viability, T/C","second compound 3.16 µM, first compound 0.949 µM",56.7%
same,"viability, T/C","second compound 3.16 µM, first compound 3 µM",54.4%
same,"viability, T/C","second compound 10 µM, first compound 0.00949 µM",40.6%
same,"viability, T/C","second compound 10 µM, first compound 0.03 µM",41.7%
same,"viability, T/C","second compound 10 µM, first compound 0.0949 µM",44.1%
same,"viability, T/C","second compound 10 µM, first compound 0.3 µM",33.4%
same,"viability, T/C","second compound 10 µM, first compound 0.949 µM",34.4%
same,"viability, T/C","second compound 10 µM, first compound 3 µM",32.5%
Cn1ncnc1C1c2n[nH]c(=O)c3cc(F)cc(c23)NC1c1ccc(F)cc1 (stereo not given) + Cc1cncc(-c2nc(NCCc3c[nH]c4ccccc34)c3ncn(C(C)C)c3n2)c1,IC50,second compound 0.1 µM,> 100 nM
same,IC50,second compound 0.316 µM,> 100 nM
same,IC50,second compound 1 µM,> 100 nM
same,IC50,second compound 3.16 µM,> 100 nM
same,IC50,second compound 10 µM,< 0.316 nM
same,"viability, T/C","second compound 0.1 µM, first compound 0.000316 µM",99.9%
same,"viability, T/C","second compound 0.1 µM, first compound 0.001 µM",98.5%
same,"viability, T/C","second compound 0.1 µM, first compound 0.00316 µM",93.4%
same,"viability, T/C","second compound 0.1 µM, first compound 0.01 µM",89.3%
same,"viability, T/C",[1],80.6%
same,"viability, T/C",[2],69.1%
same,"viability, T/C","second compound 0.316 µM, first compound 0.000316 µM",87%
same,"viability, T/C","second compound 0.316 µM, first compound 0.001 µM",86.8%
same,"viability, T/C","second compound 0.316 µM, first compound 0.00316 µM",89.2%
same,"viability, T/C","second compound 0.316 µM, first compound 0.01 µM",91.7%
same,"viability, T/C",[7],66.8%
same,"viability, T/C",[8],73.4%
same,"viability, T/C","second compound 1 µM, first compound 0.000316 µM",78.2%
same,"viability, T/C","second compound 1 µM, first compound 0.001 µM",79.8%
same,"viability, T/C","second compound 1 µM, first compound 0.00316 µM",88.2%
same,"viability, T/C","second compound 1 µM, first compound 0.01 µM",95.6%
same,"viability, T/C",[13],80.6%
same,"viability, T/C",[14],64.5%
same,"viability, T/C","second compound 3.16 µM, first compound 0.000316 µM",73.9%
same,"viability, T/C","second compound 3.16 µM, first compound 0.001 µM",75.6%
same,"viability, T/C","second compound 3.16 µM, first compound 0.00316 µM",75.6%
same,"viability, T/C","second compound 3.16 µM, first compound 0.01 µM",72.6%
same,"viability, T/C",[19],77.2%
same,"viability, T/C",[20],62.5%
same,"viability, T/C","second compound 10 µM, first compound 0.000316 µM",38.7%
same,"viability, T/C","second compound 10 µM, first compound 0.001 µM",40.6%
same,"viability, T/C","second compound 10 µM, first compound 0.00316 µM",43.9%
same,"viability, T/C","second compound 10 µM, first compound 0.01 µM",42.1%
same,"viability, T/C",[25],36.1%
same,"viability, T/C",[26],40.2%
NS(=O)(=O)OCC1CC(n2ccc3c(NC4CCc5ccccc54)ncnc32)CC1O (stereo not given) + Cc1cncc(-c2nc(NCCc3c[nH]c4ccccc34)c3ncn(C(C)C)c3n2)c1,IC50,second compound 0.1 µM,108 nM
same,IC50,second compound 0.316 µM,83.3 nM
same,IC50,second compound 1 µM,< 31.6 nM
same,IC50,second compound 3.16 µM,< 31.6 nM
same,IC50,second compound 10 µM,< 31.6 nM
same,"viability, T/C",[1],50.1%
same,"viability, T/C",[2],52.7%
same,"viability, T/C",[3],33.8%
same,"viability, T/C",[4],15.5%
same,"viability, T/C",[5],14%
same,"viability, T/C",[6],12.5%
same,"viability, T/C",[7],54.4%
same,"viability, T/C",[8],48.5%
same,"viability, T/C",[9],34.8%
same,"viability, T/C",[10],17.6%
same,"viability, T/C",[11],16.8%
same,"viability, T/C",[12],12.4%
same,"viability, T/C",[13],42%
same,"viability, T/C",[14],43.6%
same,"viability, T/C",[15],35.5%
same,"viability, T/C",[16],18.4%
same,"viability, T/C",[17],15.7%
same,"viability, T/C",[18],15.8%
same,"viability, T/C",[19],49.4%
same,"viability, T/C",[20],41.6%
same,"viability, T/C",[21],41.4%
same,"viability, T/C",[22],27.6%
same,"viability, T/C",[23],19.5%
same,"viability, T/C",[24],17%
same,"viability, T/C",[25],26.4%
same,"viability, T/C",[26],31.7%
same,"viability, T/C",[27],29.9%
same,"viability, T/C",[28],25.2%
same,"viability, T/C",[29],21.4%
same,"viability, T/C",[30],20.1%

# From PubChem BioAssay AID1919014 (Molecular Pharmacology Branch, DTP, NCI, 2023)
